Structures can show the parent of a compound that is named as a salt.
How the values were obtained:
[1] = target: T1, α-1B adrenoceptor (rat spleen) (Rattus norvegicus, UniProt P15823); test: Functional antagonism: phenylephrine (PE)-induced contraction of rat spleen; type: cell-based; details: for more potent effect on spleen smooth muscle: PE-induced contraction, pA2 models compared; for Kb: vs phenylephrine, Schild plot, read-out: pA2 Rat Spleen [α-1B] (converted)
T1 construct: PE-induced contraction of rat spleen; from tissue; host or cells: rat spleen
T1 sequence (P15823 1-515): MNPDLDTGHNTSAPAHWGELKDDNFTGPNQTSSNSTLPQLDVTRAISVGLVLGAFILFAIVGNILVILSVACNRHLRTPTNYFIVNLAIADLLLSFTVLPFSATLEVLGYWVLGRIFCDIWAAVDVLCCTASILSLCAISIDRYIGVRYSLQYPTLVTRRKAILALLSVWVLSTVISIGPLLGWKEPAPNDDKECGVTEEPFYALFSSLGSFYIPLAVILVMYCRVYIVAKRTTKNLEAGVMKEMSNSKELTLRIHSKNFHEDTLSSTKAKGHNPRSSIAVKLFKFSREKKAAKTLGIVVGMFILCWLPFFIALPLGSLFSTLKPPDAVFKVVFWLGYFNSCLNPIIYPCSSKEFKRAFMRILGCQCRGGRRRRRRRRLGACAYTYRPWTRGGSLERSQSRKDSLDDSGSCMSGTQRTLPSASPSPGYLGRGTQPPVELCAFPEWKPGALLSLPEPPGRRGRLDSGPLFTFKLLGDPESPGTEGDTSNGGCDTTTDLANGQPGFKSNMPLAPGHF
From the text: (§1) Functional assays indicative of pharmacologically defined α-1 adrenoceptors were used to further characterize compounds. Inhibition of phenylephrine (PE)-induced contraction of canine prostate smooth muscle can be correlated with α-1A adrenoceptor activation. […] For each of these models, agonist dose response curves were repeated against increasing concentrations of test agent to derive a Schild plot [log ([…]) against log (molarity of test agent)] to determine the pA2.

[2] = cited from earlier work; for urinary flow rates and subjective symptom scores: longer term studies
[3] = women during antihypertensive treatment; cited from earlier work
[4] = target: T2, α-1A adrenoceptor (rat vas deferens) (Rattus norvegicus, UniProt P43140); test: Functional antagonism: phenylephrine (PE)-induced contraction of rat vas deferens; type: cell-based; details: vs phenylephrine; Schild plot; read-out: pA2 Rat Vas Deferens [α-1A] (converted)
T2 construct: PE-induced contraction of rat vas deferens; from tissue; host or cells: rat vas deferens
T2 sequence (P43140 1-466): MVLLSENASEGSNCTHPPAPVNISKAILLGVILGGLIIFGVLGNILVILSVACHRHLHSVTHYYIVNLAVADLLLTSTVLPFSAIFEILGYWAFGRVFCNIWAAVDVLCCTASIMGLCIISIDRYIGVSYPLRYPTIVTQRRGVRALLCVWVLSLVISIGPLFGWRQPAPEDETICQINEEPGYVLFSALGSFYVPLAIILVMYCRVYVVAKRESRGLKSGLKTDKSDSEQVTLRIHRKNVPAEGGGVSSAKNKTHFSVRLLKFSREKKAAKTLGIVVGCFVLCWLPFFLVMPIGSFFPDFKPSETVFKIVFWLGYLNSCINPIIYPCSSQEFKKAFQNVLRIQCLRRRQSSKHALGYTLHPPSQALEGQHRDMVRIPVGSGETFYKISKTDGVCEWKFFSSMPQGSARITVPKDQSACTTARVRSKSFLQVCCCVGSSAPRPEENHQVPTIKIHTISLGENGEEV
From the text: as §1

[5] = target: T3, α-1A adrenoceptor (dog prostate) (Canis lupus, UniProt A0A8I3NK63); test: Functional antagonism: phenylephrine (PE)-induced contraction of canine prostate strips; type: cell-based; details: Table 2a; vs phenylephrine; Schild plot
T3 sequence (A0A8I3NK63 1-466): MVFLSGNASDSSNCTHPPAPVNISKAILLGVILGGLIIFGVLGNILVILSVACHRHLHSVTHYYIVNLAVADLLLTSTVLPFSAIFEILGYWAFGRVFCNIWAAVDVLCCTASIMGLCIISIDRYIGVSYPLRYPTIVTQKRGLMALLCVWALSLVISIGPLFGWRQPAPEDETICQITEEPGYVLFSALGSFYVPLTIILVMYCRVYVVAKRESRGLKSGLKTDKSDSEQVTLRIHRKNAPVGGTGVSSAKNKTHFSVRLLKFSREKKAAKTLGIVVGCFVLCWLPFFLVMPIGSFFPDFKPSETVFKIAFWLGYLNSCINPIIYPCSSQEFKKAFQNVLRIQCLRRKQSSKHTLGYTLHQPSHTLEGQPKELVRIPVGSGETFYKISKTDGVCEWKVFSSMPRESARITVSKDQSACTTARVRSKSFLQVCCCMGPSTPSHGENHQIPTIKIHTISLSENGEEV
Summary of the method: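 Canine prostate smooth-muscle strips in vitro, contracted by phenylephrine. Agonist dose–response curves repeated at rising test-agent concentrations; pA2 derived by Schild plot […].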

In the case of `COc1cc2nc(N3CCN(C(=O)C4CCCO4)CC3)nc(N)c2cc1OC` (stereo not shown) [terazosin], the “more potent effect on spleen smooth muscle” value [1] is given as “more potent effect on spleen smooth muscle by approximately an order of magnitude”, the “clinical efficacy in BPH” value ([2]; human, in vivo) is given as “Clinical efficacy of α-1 antagonists in BPH has been demonstrated” and the “urinary flow rates and subjective symptom scores” value [2] is given as “significant improvements in urinary flow rates and subjective symptom scores”.
In the case of `O=C(NC1CCN(CCc2c[nH]c3ccccc23)CC1)c1ccccc1` [indoramin], the “urinary flow rates and subjective symptom scores” value [2] is given as “significant improvements in urinary flow rates and subjective symptom scores”.
For `COc1cc2nc(N3CCN(C(=O)c4ccco4)CC3)nc(N)c2cc1OC` [prazosin], the “more potent effect on spleen smooth muscle” value [1] is listed as “more potent effect on spleen smooth muscle by approximately an order of magnitude”, the urinary incontinence [3] is listed as “urinary incontinence developed in women” and the “urinary flow rates and subjective symptom scores” value [2] is listed as “significant improvements in urinary flow rates and subjective symptom scores”.
For `COc1cccc2c1CC[C@H]1CN(CCn3c(=O)[nH]c4c([nH]c5ccccc54)c3=O)C[C@@H]21` (relative stereo) [Example 14, hydrochloride], the Kb [1] was 23.4 nM, the Kb [4] was 2.69 nM and the “pA2 Dog Prostate [α-1A]” value [5] was 8.23.
For `COc1cccc2c1CC[C@H]1CN(CCn3c(=O)[nH]c4c(sc5ncccc54)c3=O)C[C@@H]21` (relative stereo) [Example 23, hydrochloride], the Kb [1] was 151 nM, the Kb [4] was 5.13 nM and the “pA2 Dog Prostate [α-1A]” value [5] was 8.97.
In the case of `COc1cccc2c1[C@@H]1CN(CCn3c(=O)[nH]c4c(sc5ccccc54)c3=O)C[C@@H]1CC2` (relative stereo) [Example 5, 3-[2-(cis-9-Methoxy-2,3,3a,4,5,9b-hexahydro-[1H]-benz[e]isoindol-1-yl)ethyl]-[1]benzothieno[3,2-d]pyrimidine-2,4(1H,3H)-dione hydrochloride], the Kb [1] is reported as 148 nM, the Kb [4] is reported as 13.8 nM and the “pA2 Dog Prostate [α-1A]” value [5] is reported as 7.79.
With `COc1ccc2sc3c(=O)n(CCN4C[C@@H]5CCc6c(OC)cccc6[C@@H]5C4)c(=O)[nH]c3c2n1` [Example 64, dihydrochloride] the Kb [1] was 25.1 nM, the Kb [4] was 0.794 nM and the “pA2 Dog Prostate [α-1A]” value [5] was 9.63.
For `COc1cccc2c1CC[C@H]1CN(CCn3c(=O)[nH]c4c(sc5ccc(C#N)nc54)c3=O)C[C@@H]21` [Example 108, dihydrochloride], the Kb [1] was 11.2 nM, the Kb [4] was 3.39 nM and the “pA2 Dog Prostate [α-1A]” value [5] was 9.03.
In the case of `COc1cccc2c1CC[C@H]1CN(CCn3c(=O)[nH]c4c([nH]c5ccccc54)c3=O)C[C@@H]21` [Example 26, 3-[2-((3aR,9bR)-cis-6-Methoxy-2,3,3a,4,5,9b-hexahydro-[1 H]-benz[e]isoindol-1-yl)ethyl]-1H-pyrimido[5.4-b]indole-2,4(1H,3H)-dione hydrochloride], the Kb [1] is reported as 7.41 nM, the Kb [4] is reported as 2.75 nM and the “pA2 Dog Prostate [α-1A]” value [5] is reported as 8.63.
In the case of `COc1cccc2c1CC[C@H]1CN(CCn3c(=O)[nH]c4c(oc5ncccc54)c3=O)C[C@@H]21` [Example 76, hydrochloride], the Kb [1] is reported as 23.4 nM, the Kb [4] is reported as 25.1 nM and the “pA2 Dog Prostate [α-1A]” value [5] is reported as 8.74.

Source: patent publication US5597823A, “Tricyclic substituted hexahydrobenz [e]isoindole alpha-1 adrenergic antagonists” (priority 1995, dated 1997)
